Series [1] is described as follows: In situ brain perfusion, cerebral transfer coefficient (Kin). The format is in vivo, mouse. The note with it: in situ brain perfusion 2-5 min, perfusate flow rate 2 ml/min. Here is the method: The in situ brain perfusion technique (in adult male OF1 mouse) is used to illustrate passage in the brain across the BBB.
Radioactive peptides with high specific radioactivity (RAS, up to 100 Ci/mmol) are prepared by a strategy of acylation of the N-term amine function by tritiated propionic (or propanoic) anhydride or tritiated N-propionyl-succinimide (NPS).
The techniques briefly summarized below were developed previously to study the distribution in the brain of active substances and, in particular, the role of the BBB and, more particularly, of LDLR in the penetration of these molecules in the brain. In situ brain perfusion techniques are among the most technically demanding and the most difficult to perform in the mouse. […]
This strategy of in situ brain perfusion normally carried out in the rat was adapted for mouse (Dagenais et al., 2000, J Cereb Blood Flow Metab., 20(2), 381-6) in order to broaden its application for evaluating the parameters of transport kinetics at the BBB and the blood-retinal barrier, and this also in transgenic and KO mutant mice for the receptors, enzymes or transporters of active substances. […] The duration of the fixed flow-rate perfusion is monitored. […]

Series [2] can be described thus: In vitro plasma stability (half-life) in freshly collected mouse blood, LC-MS/MS. The format is in vitro ADME. The note with it: up to 8 hours at 37°C in Swiss (CD-I) mouse blood, analyte quantified in the plasma fraction. The protocol: In vitro plasma stability (i.e. half-life or t1/2) of the peptides of the invention was also assessed. Briefly, each peptide was incubated up to 8 hours at 37°C in freshly collected Swiss (CD-I) mouse blood and the analyte was quantified in the plasma fraction at several time-points using a liquid chromatography-tandem mass spectrometry (LC-MS/MS) analytical method. […]

Non-standard residues stand in square brackets, D forms with d. Residues, ends and D or L forms follow the SMILES beside them.

For the compound `CC(C)C[C@H](NC(=O)[C@H](Cc1ccccc1)NC(=O)CNC(=O)[C@@H](C)NC(=O)[C@@H](N)Cc1ccc(O)cc1)C(=O)N[C@@H](CCCNC(=N)N)C(=O)O` [Dalargine] (H-Y[dA]GFLR-OH), the “Kin (transfer coefficient)” value in series [1] is listed as “≈ 0.9 x 10^-4 ml/s/g”.
Usually half-life stands for how long it takes for the measured level to halve. Lower therefore signals rapid decline. For the compound `CSCC[C@@H]1NC(=O)[C@H](N)CSSC(C)(C)[C@@H](C(=O)O)NC(=O)CNC(=O)[C@H](CCCNC(=N)N)NC(=O)[C@H](CC(C)C)NC(=O)[C@H](CCCNC(=N)N)NC(=O)[C@@H]2CSCN2C1=O` [SEQ ID NO: 1, (D)-Cys-Met-Thz-Arg-Leu-Arg-Gly-Pen], the half-life in series [2] is 4 h.
`CSCC[C@@H]1NC(=O)[C@H](N)CSSC(C)(C)[C@@H](C(=O)O)NC(=O)CN(C)C(=O)[C@H](CCCNC(=N)N)NC(=O)[C@H](CC(C)C)NC(=O)[C@H](CCCNC(=N)N)NC(=O)[C@@H]2CSCN2C1=O` [SEQ ID NO: 2, (D)-Cys-Met-Thz-Arg-Leu-Arg-Sar-Pen] gave a half-life in series [2] of 4.9 h.
Same read-out and setting: as for `CSCC[C@@H]1NC(=O)[C@H](N)CSSC[C@@H](C(=O)O)NC(=O)CN(C)C(=O)[C@H](CCCNC(=N)N)NC(=O)[C@H](CC(C)C)NC(=O)[C@H](CCCNC(=N)N)NC(=O)[C@@H]2CCCCN2C1=O` [SEQ ID NO: 3, (D)-Cys-Met-Pip-Arg-Leu-Arg-Sar-Cys], the figure is 5.9 h.
On the same count and under the same terms, the result for `CSCC[C@@H]1NC(=O)[C@H](N)CSSC(C)(C)[C@@H](C(=O)O)NC(=O)CNC(=O)[C@H](CCCNC(=N)N)NC(=O)[C@H](CC(C)C)NC(=O)[C@H](CCCNC(=N)N)NC(=O)[C@@H]2CCCCN2C1=O` [SEQ ID NO: 4, (D)-Cys-Met-Pip-Arg-Leu-Arg-Gly-Pen] reads 3.9 h; that for `CSCC[C@@H]1NC(=O)[C@H](N)CSSC(C)(C)[C@@H](C(=O)O)NC(=O)CN(C)C(=O)[C@H](CCCNC(=N)N)NC(=O)[C@H](CC(C)C)NC(=O)[C@H](CCCNC(=N)N)NC(=O)[C@@H]2CCCCN2C1=O` [SEQ ID NO: 5, (D)-Cys-Met-Pip-Arg-Leu-Arg-Sar-Pen], 9.2 h.

These data come from patent EP2908837B1, “COMPOSITIONS FOR DRUG DELIVERY” (priority 2012, dated 2014).
